Values after ≈ are worked out from the molar mass of the structure shown. One block for each compound: values may come before it.
How the values were obtained:
[1] = Intrinsic clearance in human liver microsomes; assay type: ADME; conditions: read-out: CLH
[2] = Aqueous solubility of the compound in phosphate buffer at pH 7.4 incubated for 24 hrs by LC/MS/MS method; assay type: physicochemical
[3] = biological target: Casein kinase II subunit alpha (Homo sapiens, UniProt P68400); assay: Inhibition of full length N-terminal 6xHis-tagged recombinant human CK2alpha expressed in fall armyworm Sf21 cells using BODIPY-FL-RRRDDDSDDD-CONH2 as substrate after 90 mins by mobility shift assay
Casein kinase II subunit alpha, sequence (P68400 whole entry): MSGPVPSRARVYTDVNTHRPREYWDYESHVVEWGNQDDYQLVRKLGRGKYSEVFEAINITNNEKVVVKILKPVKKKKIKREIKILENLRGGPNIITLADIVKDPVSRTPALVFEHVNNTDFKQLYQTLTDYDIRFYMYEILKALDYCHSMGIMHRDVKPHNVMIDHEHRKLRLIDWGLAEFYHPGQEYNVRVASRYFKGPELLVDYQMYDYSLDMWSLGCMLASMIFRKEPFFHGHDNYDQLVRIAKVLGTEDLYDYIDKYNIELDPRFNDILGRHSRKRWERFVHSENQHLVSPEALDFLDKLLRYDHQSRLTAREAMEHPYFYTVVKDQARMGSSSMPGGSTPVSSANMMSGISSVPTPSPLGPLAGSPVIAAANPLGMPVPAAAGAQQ

[4] = Intrinsic clearance in rat hepatocyte assessed per 10^6 cells; assay type: ADME, cell-based; conditions: hepatocytes, read-out: CLH
[5] = Inhibition of CK2 in mouse L-Wnt3a cells assessed as suppression of Wnt3a-mediated L S/L Super TOPFlash reporter gene transcription after 24 hrs; conditions: L Wnt-3A
[6] = Fraction unbound in human plasma at 10 uM by equilibrium dialysis method; assay type: ADME, cell-free
[7] = Antiproliferative activity against human SW620 cells after 72 hrs by alamar blue assay; assay type: functional; conditions: SW-620, 72 h
[8] = Antiproliferative activity against human […] cells after 72 hrs by alamar blue assay; assay type: functional; conditions: HCT-116, 72 h
Casein kinase II = Casein kinase II (Homo sapiens, UniProt P19784+P67870+P68400); assay: Inhibition of CK2 in human DLD1 HA-myr-AKT1 cells assessed as suppression of AKTser129 phosphorylation after 3 to 24 hrs by Western blot analysis
Casein kinase II, sequence (P67870 whole entry): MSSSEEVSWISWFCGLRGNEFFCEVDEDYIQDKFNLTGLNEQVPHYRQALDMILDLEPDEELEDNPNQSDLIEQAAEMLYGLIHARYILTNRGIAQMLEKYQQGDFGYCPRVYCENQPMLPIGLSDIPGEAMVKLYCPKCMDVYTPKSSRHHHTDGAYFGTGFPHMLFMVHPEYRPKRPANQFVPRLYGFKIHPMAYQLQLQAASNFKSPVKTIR
Casein kinase II, sequence (P68400 whole entry): as the sequence (P68400 whole entry) above
Casein kinase II, sequence (P19784 whole entry): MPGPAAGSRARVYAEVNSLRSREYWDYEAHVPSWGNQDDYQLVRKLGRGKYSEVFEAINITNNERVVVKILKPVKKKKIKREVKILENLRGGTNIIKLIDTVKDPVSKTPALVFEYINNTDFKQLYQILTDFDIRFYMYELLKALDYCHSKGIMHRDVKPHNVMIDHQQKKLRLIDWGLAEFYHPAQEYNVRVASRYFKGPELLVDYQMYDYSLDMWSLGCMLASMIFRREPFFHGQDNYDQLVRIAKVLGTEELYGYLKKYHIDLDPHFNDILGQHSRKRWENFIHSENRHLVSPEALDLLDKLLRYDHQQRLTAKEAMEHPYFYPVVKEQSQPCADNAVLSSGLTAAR

[9] = Antiproliferative activity against human DLD1 cells after 72 hrs by alamar blue assay; assay type: functional; conditions: DLD-1, 72 h

SMILES: CCN(CCN)c1ccc(Nc2cc(NC3CC3)n3ncc(C#N)c3n2)cc1NC(C)=O
microsomal CLint [1]: 5 µL/min/mg
solubility at 24 h [2]: > 1000 µM
IC50 [3]: < 3 nM
hepatocyte CLint [4]: 2 µL/min/1e6 cells
IC50 [5]: 32 nM
fraction unbound at 10 µM [6]: 0.3

SMILES: CCN(CC)CCN(C)c1ccc(Nc2cc(NC3CC3)n3ncc(C#N)c3n2)cc1NC(C)=O
microsomal CLint [1]: 44 µL/min/mg
solubility at 24 h [2]: > 1000 µM
hepatocyte CLint [4]: 27 µL/min/1e6 cells
IC50 [5]: 390 nM
fraction unbound at 10 µM [6]: 0.23

SMILES: CC(=O)Nc1cccc(Nc2cc(NC3CC3)n3ncc(C#N)c3n2)c1
GI50 [7]: 700 nM
microsomal CLint [1]: 20 µL/min/mg
solubility at 24 h [2]: 15 µM (≈ 5.21 µg/mL)
GI50 [8]: 700 nM
hepatocyte CLint [4]: 26 µL/min/1e6 cells
IC50 [5]: 600 nM
fraction unbound at 10 µM [6]: 0.05

SMILES: CC(=O)Nc1cc(Nc2cc(NC3CC3)n3ncc(C#N)c3n2)ccc1N(C)CCN1CC(F)(F)C1
solubility at 24 h [2]: 241 µM (≈ 119 µg/mL)
IC50 [5]: 760 nM
fraction unbound at 10 µM [6]: 0.02

SMILES: CC(=O)Nc1cc(Nc2cc(NC3CC3)n3ncc(C#N)c3n2)ccc1N(C)C[C@@H](C)N
microsomal CLint [1]: < 3 µL/min/mg
solubility at 24 h [2]: 825 µM (≈ 358 µg/mL)
IC50 [3]: < 3 nM
hepatocyte CLint [4]: < 1 µL/min/1e6 cells
IC50 (Casein kinase II): 4 nM
IC50 [5]: 400 nM
fraction unbound at 10 µM [6]: 0.33

SMILES: CC(=O)Nc1cc(Nc2cc(NC3CC3)n3ncc(C#N)c3n2)ccc1N(C)C[C@H](C)N
microsomal CLint [1]: < 3 µL/min/mg
solubility at 24 h [2]: 895 µM (≈ 388 µg/mL)
IC50 [3]: < 3 nM
hepatocyte CLint [4]: < 1 µL/min/1e6 cells
IC50 (Casein kinase II): 4 nM
IC50 [5]: 670 nM
fraction unbound at 10 µM [6]: 0.36

SMILES: CC(=O)Nc1cc(Nc2cc(NC3CC3)n3ncc(C#N)c3n2)ccc1N(C)CCN1CCOCC1
microsomal CLint [1]: 135 µL/min/mg
solubility at 24 h [2]: 275 µM (≈ 135 µg/mL)
IC50 [3]: < 3 nM
hepatocyte CLint [4]: > 300 µL/min/1e6 cells
IC50 (Casein kinase II): 5 nM
IC50 [5]: 300 nM
fraction unbound at 10 µM [6]: 0.18

SMILES: CC(=O)Nc1cc(Nc2cc(NC3CC3)n3ncc(C#N)c3n2)ccc1N(C)CCCN(C)C
microsomal CLint [1]: < 4 µL/min/mg
solubility at 24 h [2]: > 1000 µM
hepatocyte CLint [4]: 15 µL/min/1e6 cells
IC50 [5]: 730 nM
fraction unbound at 10 µM [6]: 0.22

SMILES: CC(=O)Nc1cc(Nc2cc(NC3CC3)n3ncc(C#N)c3n2)ccc1N(C)CCO
microsomal CLint [1]: 21 µL/min/mg
solubility at 24 h [2]: 2 µM (≈ 0.841 µg/mL)
IC50 [3]: < 3 nM
hepatocyte CLint [4]: 17 µL/min/1e6 cells
fraction unbound at 10 µM [6]: 0.07

The next lines start with results.

microsomal CLint [1]: < 3 µL/min/mg
solubility at 24 h [2]: 704 µM (≈ 314 µg/mL)
hepatocyte CLint [4]: < 1 µL/min/1e6 cells
IC50 [5]: 180 nM
fraction unbound at 10 µM [6]: 0.22
SMILES: CC(=O)Nc1cc(Nc2cc(NC3CC3)n3ncc(C#N)c3n2)ccc1N1CCC[C@H](N)C1

microsomal CLint [1]: < 3 µL/min/mg
solubility at 24 h [2]: 590 µM (≈ 255 µg/mL)
IC50 [3]: < 3 nM
hepatocyte CLint [4]: < 1 µL/min/1e6 cells
IC50 (Casein kinase II): 70 nM
IC50 [5]: 690 nM
fraction unbound at 10 µM [6]: 0.31
SMILES: CC(=O)Nc1cc(Nc2cc(NC3CC3)n3ncc(C#N)c3n2)ccc1N1CC[C@H](N)C1

microsomal CLint [1]: 10 µL/min/mg
hepatocyte CLint [4]: 5 µL/min/1e6 cells
fraction unbound at 10 µM [6]: 0.1
SMILES: CC(=O)Nc1cc(Nc2cc(NC3CC3)n3ncc(C#N)c3n2)ccc1C
GI50 [7]: 100 nM
GI50 [8]: 80 nM
GI50 [9]: 170 nM

microsomal CLint [1]: 9 µL/min/mg
solubility at 24 h [2]: > 800 µM
hepatocyte CLint [4]: 2.5 µL/min/1e6 cells
IC50 [5]: 380 nM
fraction unbound at 10 µM [6]: 0.29
SMILES: CC(=O)Nc1cc(Nc2cc(NC3CC3)n3ncc(C#N)c3n2)ccc1N1CC[C@H](N(C)C)C1

microsomal CLint [1]: 19 µL/min/mg
solubility at 24 h [2]: > 900 µM
hepatocyte CLint [4]: < 1 µL/min/1e6 cells
IC50 [5]: 510 nM
fraction unbound at 10 µM [6]: 0.11
SMILES: CC(=O)Nc1cc(Nc2cc(NC3CC3)n3ncc(C#N)c3n2)ccc1N1CCC[C@@H](N(C)C)C1

microsomal CLint [1]: < 4 µL/min/mg
solubility at 24 h [2]: 570 µM (≈ 254 µg/mL)
hepatocyte CLint [4]: 7 µL/min/1e6 cells
IC50 [5]: 1100 nM
fraction unbound at 10 µM [6]: 0.18
SMILES: CC(=O)Nc1cc(Nc2cc(NC3CC3)n3ncc(C#N)c3n2)ccc1N1CCN(C)CC1

microsomal CLint [1]: < 3 µL/min/mg
solubility at 24 h [2]: > 1000 µM
hepatocyte CLint [4]: < 1 µL/min/1e6 cells
IC50 [5]: 650 nM
fraction unbound at 10 µM [6]: 0.2
SMILES: CC(=O)Nc1cc(Nc2cc(NC3CC3)n3ncc(C#N)c3n2)ccc1N1CCC[C@@H](N)C1

microsomal CLint [1]: < 3 µL/min/mg
solubility at 24 h [2]: 812 µM (≈ 350 µg/mL)
IC50 [3]: < 3 nM
hepatocyte CLint [4]: 2.5 µL/min/1e6 cells
IC50 (Casein kinase II): 70 nM
IC50 [5]: 960 nM
fraction unbound at 10 µM [6]: 0.32
SMILES: CC(=O)Nc1cc(Nc2cc(NC3CC3)n3ncc(C#N)c3n2)ccc1N1CC[C@@H](N)C1
